Like-named read-outs stand apart in the source and are kept apart here.
Experiments:
[1] = tested on: rats; assay: Ocular MTD studies, sub-conjunctival administration; type: in vivo, rat
Source text: (§1) Despite technical advances in ocular surgery, the physical trauma of this procedure continues to induce post-operative ocular inflammation warranting treatment. In ocular tissue, arachidonic acid is metabolized by cyclooxygenase (COX) to prostaglandins (PG) which are the most important lipid-derived mediators of inflammation. Surgical trauma causes a trigger of the arachidonic acid cascade which in turn generates PGs by activation of COX-1 and COX-2. Phospholipids in the cell membrane are the substrate for phospholipase A to generate arachidonic acid from which a family of chemically distinct PGs and leukotriens are produced. The ‘golden standard’ for the treatment of ocular inflammation are topical corticosteroids and/or Non-Steroidal Anti-inflammatory Drugs (NSAIDs). Side effects reported with (short-term) corticosteroid use include cataract formation, increased Intra Ocular Pressure (IOP), increased susceptibility to viral infections and retardation of the corneal epithelial and stromal wound healing. In addition, prolonged treatment with corticosteroids have been known to induce systemic side effects such as glucose impairment, hypertension, development of glaucoma, visual acuity defects, loss of visual field, and posterior subcapsular cataract formation. […]

[2] = tested on: rabbits; assay: as above; type: in vivo, rabbit
Source text: as §1

[3] = tested on: db/db mice; conditions: mouse, in vivo
Source text: i) Animals • A total of twenty (20) male db/db mice (8 weeks old) were obtained from Charles River (Germany). Upon arrival, animals were group housed (n=6-7/group) and offered regular rodent chow (Altromin standard #1324 chow; C. Petersen, Ringsted, Denmark) and water ad libitum unless otherwise stated. The mice were housed under a 12:12 L/D cycle (lights on at 4:00 and lights off at 16:00) and in temperature and humidity controlled rooms.
ii) Groups and Randomization • On day −4, mice were randomized according to blood glucose level (fasted; blood glucose measured on Biosen S line analyzer (EKF diagnostic, Germany) to participate in one of the following drug treatment groups (n=6): • 1) Vehicle control, S.C. (physiological saline) • 2) XG-102 (SEQ ID NO: 11); 1 mg/kg; s.c. • 3) XG-102 (SEQ ID NO: 11); 10 mg/kg; s.c • All doses listed were calculated for the free-base. […] All compounds were administered sub-cutaneously (s.c.) in a volume of 3 ml/kg. The formulation instructions for vehicle control and XG-102 (SEQ ID NO: 11) were as follows: • First, XG-102 (SEQ ID NO: 11) was dissolved in the vehicle. […]
i) Blood Glucose • Blood glucose was measured from 7 hour fasted animals 6 hours post dosing by collection of 10 μl blood samples from the tail-vein in hematocrite tubes and subsequent analysis on a Biosen s-line analyzer (EKF-diagnostic; Germany).

[4] = tested on: Brown Norway rats, STZ; assay: Diabetic retinopathy prevention study in STZ treated rat (IVT); type: in vivo; conditions: 0.2 and 2 μg/eye IVT
Source text: The objective of this study was to determine the ability of XG-102 to prevent diabetic retinopathy when administered by intravitreal injections to streptozotocin (STZ)-treated (hyperglycemic) rats.
Sterile vials containing 0.0412 g of inducing agent (STZ) were pre-weighed, sealed and transferred to the dosing room for administration to Groups 2 to 4 animals and Spares on Day −7. A duplicate set of empty, appropriately labeled sterile vials were provided. The reconstituted STZ solution was filtered into these vials for dosing. The Reference Item, 0.9% NaCl, was administered as received. XG-102 was prepared using the correction factor 1.383. A stock solution equal to the highest dose level was prepared in vehicle, 0.9% Sodium Chloride for Injection, and sterile filtered through a 0.22 μm polyvinylidene difluoride (PVDF) filter. The lower dose levels were prepared by directly diluting the stock solution. Dose formulations were prepared once at appropriate concentrations to meet dosage level requirements. All dilutions were prepared by directly diluting the stock solution with vehicle. Three dosing aliquots (Days 1, 8 and 15) were prepared and stored in a freezer set to maintain −20° C. Aliquot(s) of each dose level were thawed at ambient temperature on each day of dosing and the solution maintained at room temperature for no longer than 6 hours. […]

With `CC(C)C[C@@H](NC(=O)[C@@H](Cc1ccccc1)NC(=O)[C@H]1CCCN1C(=O)[C@@H](CCC(N)=O)NC(=O)[C@H](NC(=O)[C@H]1CCCN1C(=O)[C@@H](CCCNC(=N)N)NC(=O)[C@@H](CO)NC(=O)[C@@H](CCC(N)=O)NC(=O)[C@H](N)CC(=O)O)C(C)C)C(=O)N[C@H](CC(N)=O)C(=O)N[C@H](CC(C)C)C(=O)N[C@@H](C(=O)N[C@@H](C(=O)N1CCC[C@@H]1C(=O)N[C@H](CCCNC(=N)N)C(=O)N[C@H](CCCCN)C(=O)N1CCC[C@@H]1C(=O)N[C@H](CCCNC(=N)N)C(=O)N1CCC[C@@H]1C(=O)N1CCC[C@@H]1C(=O)N[C@H](CCCNC(=N)N)C(=O)N[C@H](CCCNC(=N)N)C(=O)N[C@H](CCCNC(=N)N)C(=O)N[C@H](CCC(N)=O)C(=O)N[C@H](CCCNC(=N)N)C(=O)N[C@H](CCCNC(=N)N)C(=O)N[C@H](CCCCN)C(=O)N[C@H](CCCCN)C(=O)N[C@H](CCCNC(=N)N)C(=O)NCC(=O)O)[C@H](C)O)[C@H](C)O` [XG-102] the “No Observed Adverse Effect Level (NOAEL)” value [1] was “around 20 μg”, the “No Observed Adverse Effect Level (NOAEL)” value [2] was about 600 µg and the “reaction of subcutaneous tissue at injection” value ([3]; 1 mg/kg) was “mild nodular fibrosis was observed”. For the same molecule, the “reaction of subcutaneous tissue at injection” value ([3]; 10 mg/kg) was “nodular fibrosis was observed in the subcutaneous tissue”, the “clinical signs, body weights, food consumption” value [4] was “no XG-102-related clinical signs or effects on body weights, body weight gains or food consumption” and the deaths [4] was “no XG-102-related deaths during the study”.
